Reference: patent US5502035A, “N-terminus modified analogs of LHRH” (Tap Holdings Inc., priority 1994, dated 1996)
Non-standard residues stand in square brackets, D forms with d. Residues, ends and D or L forms follow the SMILES beside them. *: point of attachment. Shikimoyl = O=C(C1=C[C@@H](O)[C@@H](O)[C@H](O)C1)*; Tetrahydrofuroyl(2R) = O=C([C@H]1CCCO1)*; dPhe(4-Cl) = N[C@H](Cc1ccc(Cl)cc1)C(=O)O; d2Nal = N[C@H](Cc1ccc2ccccc2c1)C(=O)O; Acetyl(3-pyridyl) = O=C(Cc1cccnc1)*; Lys(iPr) = CC(C)NCCCC[C@H](N)C(=O)O; NMeY = CN[C@@H](Cc1ccc(O)cc1)C(=O)O; dCit = NC(=O)NCCC[C@@H](N)C(=O)O; d3Pal = N[C@H](Cc1cccnc1)C(=O)O; Isonicotinoyl = O=C(c1ccncc1)*; Nicotinoyl = O=C(c1cccnc1)*; Picolinoyl = O=C(c1ccccn1)*; X2 = O=C1CC[C@@H](C(=O)*)O1; X8 = O=C1CC[C@H](C(=O)*)O1; 2Furoyl = O=C(c1ccco1)*; X1 = O=C([C@@H]1CCCO1)*; X9 = O=C(c1ccc(O)nc1)*

target: T1, LHRH (Rattus norvegicus, UniProt P30969); assay: in vitro test for LHRH antagonist potency (pA2); format: cell-based; conditions: negative logarithm of the antagonist concentration required to shift the response curve produced by the agonist leuprolide to two-fold higher concentration
T1 construct: endogenous in cells; host or cells: rat pituitary cells (own knowledge of the cited Haviv 1989 method)
T1 sequence (P30969 1-327): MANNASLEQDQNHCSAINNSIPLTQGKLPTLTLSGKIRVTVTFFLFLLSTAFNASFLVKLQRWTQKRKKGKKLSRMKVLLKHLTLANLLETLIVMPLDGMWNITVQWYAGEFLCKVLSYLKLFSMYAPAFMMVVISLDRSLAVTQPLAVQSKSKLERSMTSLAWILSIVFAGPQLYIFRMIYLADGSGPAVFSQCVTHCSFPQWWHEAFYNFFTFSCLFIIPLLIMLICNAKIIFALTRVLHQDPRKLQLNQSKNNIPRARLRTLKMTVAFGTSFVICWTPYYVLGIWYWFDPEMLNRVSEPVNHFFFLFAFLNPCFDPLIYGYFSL
In short: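 Rat LHRH receptor in vitro functional test; pA2 = negative log of the antagonist concentration shifting the leuprolide agonist response curve to two-fold higher concentration.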

Compound	Kb [nM]
CC(C)C[C@H](NC(=O)[C@@H](CCCCNC(=O)c1cccnc1)NC(=O)[C@H](Cc1ccc(O)cc1)N(C)C(=O)[C@H](CO)NC(=O)[C@@H](Cc1cccnc1)NC(=O)[C@@H](Cc1ccc(Cl)cc1)NC(=O)[C@@H](Cc1ccc2ccccc2c1)NC(=O)c1ccc(O)nc1)C(=O)N[C@@H](CCCCNC(C)C)C(=O)N1CCC[C@H]1C(=O)N[C@H](C)C(N)=O [Example 72f, N-(6-Hydroxy)nicotinyl-D2Nal-D4ClPhe-D3Pal-Ser-NMeTyr-DLys(Nic)-Leu-Lys(Isp)-Pro-DAlaNH2] (X9-[d2Nal][dPhe(4-Cl)][d3Pal]S[NMeY][dK](Nicotinoyl)L[Lys(iPr)]P[dA]-NH2)	0.01
CC(C)C[C@H](NC(=O)[C@@H](CCCCNC(=O)c1cccnc1)NC(=O)[C@H](Cc1ccc(O)cc1)N(C)C(=O)[C@H](CO)NC(=O)[C@@H](Cc1cccnc1)NC(=O)[C@@H](Cc1ccc(Cl)cc1)NC(=O)[C@@H](Cc1ccc2ccccc2c1)NC(=O)c1ccncc1)C(=O)N[C@@H](CCCCNC(C)C)C(=O)N1CCC[C@H]1C(=O)N[C@H](C)C(N)=O [Example 72g, N-Isonicotinyl-D2Nal-D4ClPhe-D3Pal-Ser-NMeTyr-DLys(Nic)-Leu-Lys(Isp)-Pro-DAlaNH2] (Isonicotinoyl-[d2Nal][dPhe(4-Cl)][d3Pal]S[NMeY][dK](Nicotinoyl)L[Lys(iPr)]P[dA]-NH2)	0.02
CC(C)C[C@H](NC(=O)[C@@H](CCCCNC(=O)c1cccnc1)NC(=O)[C@H](Cc1ccc(O)cc1)N(C)C(=O)[C@H](CO)NC(=O)[C@@H](Cc1cccnc1)NC(=O)[C@@H](Cc1ccc(Cl)cc1)NC(=O)[C@@H](Cc1ccc2ccccc2c1)NC(=O)Cc1cccnc1)C(=O)N[C@@H](CCCCNC(C)C)C(=O)N1CCC[C@H]1C(=O)N[C@H](C)C(N)=O [Example 72h, N-(3-Pyridylacetyl)-D2Nal-D4ClPhe-D3Pal-Ser-NMeTyr-DLys(Nic)-Leu-Lys(Isp)- Pro-DAlaNH2] ({Acetyl(3-pyridyl)}-[d2Nal][dPhe(4-Cl)][d3Pal]S[NMeY][dK](Nicotinoyl)L[Lys(iPr)]P[dA]-NH2)	0.00631
CC(C)C[C@H](NC(=O)[C@@H](CCCCNC(=O)c1cccnc1)NC(=O)[C@H](CCCCNC(=O)c1cccnc1)NC(=O)[C@H](CO)NC(=O)[C@@H](Cc1cccnc1)NC(=O)[C@@H](Cc1ccc(Cl)cc1)NC(=O)[C@@H](Cc1ccc2ccccc2c1)NC(=O)C1=C[C@@H](O)[C@@H](O)[C@H](O)C1)C(=O)N[C@@H](CCCCNC(C)C)C(=O)N1CCC[C@H]1C(=O)N[C@H](C)C(N)=O [Example 73, N-Shikimyl-D2Nal-D4ClPhe-D3Pal-Ser-Lys(Nic)-DLys(Nic)-Leu-Lys(Isp)-Pro-DAlaNH2] (Shikimoyl-[d2Nal][dPhe(4-Cl)][d3Pal]SK(Nicotinoyl)[dK](Nicotinoyl)L[Lys(iPr)]P[dA]-NH2)	0.0447
CC(C)C[C@H](NC(=O)[C@@H](CCCCNC(=O)c1cccnc1)NC(=O)[C@H](CCCCNC(=O)c1cccnc1)NC(=O)[C@H](CO)NC(=O)[C@@H](Cc1cccnc1)NC(=O)[C@@H](Cc1ccc(Cl)cc1)NC(=O)[C@@H](Cc1ccc2ccccc2c1)NC(=O)c1cccnc1)C(=O)N[C@@H](CCCCNC(C)C)C(=O)N1CCC[C@H]1C(=O)N[C@H](C)C(N)=O [Example 74, N-Nicotinyl-D2Nal-D4ClPhe-D3Pal-Ser-Lys(Nic)-DLys(Nic)-Leu-Lys(Isp)-Pro-DAlaNH2] (Nicotinoyl-[d2Nal][dPhe(4-Cl)][d3Pal]SK(Nicotinoyl)[dK](Nicotinoyl)L[Lys(iPr)]P[dA]-NH2)	0.0562
CC(C)C[C@H](NC(=O)[C@@H](CCCCNC(=O)c1cccnc1)NC(=O)[C@H](Cc1ccc(O)cc1)NC(=O)[C@H](CO)NC(=O)[C@@H](Cc1cccnc1)NC(=O)[C@@H](Cc1ccc(Cl)cc1)NC(=O)[C@@H](Cc1ccc2ccccc2c1)NC(=O)C1=C[C@@H](O)[C@@H](O)[C@H](O)C1)C(=O)N[C@@H](CCCCNC(C)C)C(=O)N1CCC[C@H]1C(=O)N[C@H](C)C(N)=O [Example 75, N-Shikimyl-D2Nal-D4ClPhe-D3Pal-Ser-Tyr-DLys(Nic)-Leu-Lys(Isp)-Pro-DAlaNH2] (Shikimoyl-[d2Nal][dPhe(4-Cl)][d3Pal]SY[dK](Nicotinoyl)L[Lys(iPr)]P[dA]-NH2)	0.0112
CC(C)C[C@H](NC(=O)[C@@H](CCCNC(N)=O)NC(=O)[C@H](Cc1ccc(O)cc1)N(C)C(=O)[C@H](CO)NC(=O)[C@@H](Cc1cccnc1)NC(=O)[C@@H](Cc1ccc(Cl)cc1)NC(=O)[C@@H](Cc1ccc2ccccc2c1)NC(=O)[C@@H]1CCCO1)C(=O)N[C@@H](CCCNC(=N)N)C(=O)N1CCC[C@H]1C(=O)N[C@H](C)C(N)=O [Example 76, N-(S)-Tetrahydofur-2-oyl-D2Nal-D4ClPhe-D3Pal-Ser-NMeTyr-DCit-Leu-Arg-Pro-DAlaNH2] (X1-[d2Nal][dPhe(4-Cl)][d3Pal]S[NMeY][dCit]LRP[dA]-NH2)	0.0355
CC(C)C[C@H](NC(=O)[C@@H](CCCNC(N)=O)NC(=O)[C@H](Cc1ccc(O)cc1)N(C)C(=O)[C@H](CO)NC(=O)[C@@H](Cc1cccnc1)NC(=O)[C@@H](Cc1ccc(Cl)cc1)NC(=O)[C@@H](Cc1ccc2ccccc2c1)NC(=O)[C@H]1CCCO1)C(=O)N[C@@H](CCCNC(=N)N)C(=O)N1CCC[C@H]1C(=O)N[C@H](C)C(N)=O [Example 77, N-(R)-Tetrahydofur-2-oyl-D2Nal-D4ClPhe-D3Pal-Ser-NMeTyr-DCit-Leu-Arg-Pro-DAlaNH2] ({Tetrahydrofuroyl(2R)}-[d2Nal][dPhe(4-Cl)][d3Pal]S[NMeY][dCit]LRP[dA]-NH2)	0.0141
CC(C)C[C@H](NC(=O)[C@@H](CCCNC(N)=O)NC(=O)[C@H](Cc1ccc(O)cc1)N(C)C(=O)[C@H](CO)NC(=O)[C@@H](Cc1cccnc1)NC(=O)[C@@H](Cc1ccc(Cl)cc1)NC(=O)[C@@H](Cc1ccc2ccccc2c1)NC(=O)[C@H]1CCC(=O)O1)C(=O)N[C@@H](CCCNC(=N)N)C(=O)N1CCC[C@H]1C(=O)N[C@H](C)C(N)=O [Example 78a, N-(R)-5-Oxo-tetrahydrofur-2-oyl-D2Nal-D4ClPhe-D3Pal-Ser-NMeTyr-DCit-Leu-Arg-Pro-DAlaNH2] (X8-[d2Nal][dPhe(4-Cl)][d3Pal]S[NMeY][dCit]LRP[dA]-NH2)	0.0105
CC(C)C[C@H](NC(=O)[C@@H](CCCNC(N)=O)NC(=O)[C@H](Cc1ccc(O)cc1)N(C)C(=O)[C@H](CO)NC(=O)[C@@H](Cc1cccnc1)NC(=O)[C@@H](Cc1ccc(Cl)cc1)NC(=O)[C@@H](Cc1ccc2ccccc2c1)NC(=O)[C@@H]1CCC(=O)O1)C(=O)N[C@@H](CCCNC(=N)N)C(=O)N1CCC[C@H]1C(=O)N[C@H](C)C(N)=O [Example 78b, N-(S)-5-Oxo-tetrahydrofur-2-oyl-D2Nal-D4ClPhe-D3Pal-Ser-NMeTyr-DCit-Leu-Arg-Pro-DAlaNH2] (X2-[d2Nal][dPhe(4-Cl)][d3Pal]S[NMeY][dCit]LRP[dA]-NH2)	0.00832
CC(C)C[C@H](NC(=O)[C@@H](CCCNC(N)=O)NC(=O)[C@H](Cc1ccc(O)cc1)N(C)C(=O)[C@H](CO)NC(=O)[C@@H](Cc1cccnc1)NC(=O)[C@@H](Cc1ccc(Cl)cc1)NC(=O)[C@@H](Cc1ccc2ccccc2c1)NC(=O)C1=C[C@@H](O)[C@@H](O)[C@H](O)C1)C(=O)N[C@@H](CCCNC(=N)N)C(=O)N1CCC[C@H]1C(=O)N[C@H](C)C(N)=O [Example 78c, N-Shikimyl-D2Nal-D4ClPhe-D3Pal-Ser-NMeTyr-DCit-Leu-Arg-Pro-DAlaNH2] (Shikimoyl-[d2Nal][dPhe(4-Cl)][d3Pal]S[NMeY][dCit]LRP[dA]-NH2)	0.0132
CC(C)C[C@H](NC(=O)[C@@H](CCCNC(N)=O)NC(=O)[C@H](Cc1ccc(O)cc1)N(C)C(=O)[C@H](CO)NC(=O)[C@@H](Cc1cccnc1)NC(=O)[C@@H](Cc1ccc(Cl)cc1)NC(=O)[C@@H](Cc1ccc2ccccc2c1)NC(=O)c1ccco1)C(=O)N[C@@H](CCCNC(=N)N)C(=O)N1CCC[C@H]1C(=O)N[C@H](C)C(N)=O [Example 78d, N-2-Furoyl-D2Nal-D4ClPhe-D3Pal-Ser-NMeTyr-DCit-Leu-Arg-Pro-DAlaNH2] (2Furoyl-[d2Nal][dPhe(4-Cl)][d3Pal]S[NMeY][dCit]LRP[dA]-NH2)	0.00794
CC(C)C[C@H](NC(=O)[C@@H](CCCNC(N)=O)NC(=O)[C@H](Cc1ccc(O)cc1)N(C)C(=O)[C@H](CO)NC(=O)[C@@H](Cc1cccnc1)NC(=O)[C@@H](Cc1ccc(Cl)cc1)NC(=O)[C@@H](Cc1ccc2ccccc2c1)NC(=O)c1ccncc1)C(=O)N[C@@H](CCCNC(=N)N)C(=O)N1CCC[C@H]1C(=O)N[C@H](C)C(N)=O [Example 78e, N-Isonicotinyl-D2Nal-D4ClPhe-D3Pal-Ser-NMeTyr-DCit-Leu-Arg-Pro-DAlaNH2] (Isonicotinoyl-[d2Nal][dPhe(4-Cl)][d3Pal]S[NMeY][dCit]LRP[dA]-NH2)	0.0162
CC(C)C[C@H](NC(=O)[C@@H](CCCNC(N)=O)NC(=O)[C@H](Cc1ccc(O)cc1)N(C)C(=O)[C@H](CO)NC(=O)[C@@H](Cc1cccnc1)NC(=O)[C@@H](Cc1ccc(Cl)cc1)NC(=O)[C@@H](Cc1ccc2ccccc2c1)NC(=O)c1ccccn1)C(=O)N[C@@H](CCCNC(=N)N)C(=O)N1CCC[C@H]1C(=O)N[C@H](C)C(N)=O [Example 78f, N-Picolinoyl-D2Nal-D4ClPhe-D3Pal-Ser-NMeTyr-DCit-Leu-Arg-Pro-DAlaNH2] (Picolinoyl-[d2Nal][dPhe(4-Cl)][d3Pal]S[NMeY][dCit]LRP[dA]-NH2)	0.0316
CC(C)C[C@H](NC(=O)[C@@H](CCCNC(N)=O)NC(=O)[C@H](Cc1ccc(O)cc1)N(C)C(=O)[C@H](CO)NC(=O)[C@@H](Cc1cccnc1)NC(=O)[C@@H](Cc1ccc(Cl)cc1)NC(=O)[C@@H](Cc1ccc2ccccc2c1)NC(=O)c1cccnc1)C(=O)N[C@@H](CCCNC(=N)N)C(=O)N1CCC[C@H]1C(=O)N[C@H](C)C(N)=O [Example 78g, N-Nicotinyl-D2Nal-D4ClPhe-D3Pal-Ser-NMeTyr-DCit-Leu-Arg-Pro-DAlaNH2] (Nicotinoyl-[d2Nal][dPhe(4-Cl)][d3Pal]S[NMeY][dCit]LRP[dA]-NH2)	0.00708
